According to patent publication US20140187593A1, “DIAGNOSTIC TEST AND TREATMENT FOR A NE[…]” (priority 2012, published 2014):

Tested on: patients with VMAT2 mutation
Assay: Clinical response of the index case to vitamin B6 or folinic acid
Type: in vivo, human
Source text: The index case was a person with global developmental delay and abnormal movements. They had first been brought to medical attention with hypotonia, loss of acquired head control, and paroxysmal stereotyped episodes of persistent eye deviation and crying lasting hours. Video-EEG monitoring had excluded seizures, and a symptom diagnosis of oculogyric crisis had been made. Development had been normal initially, but had slowed after presentation. […] […] […] They had axial hypotonia and appendicular hypertonia specifically involving extensor muscles of upper and lower extremities. Deep tendon reflexes were 2+/4 and plantars flexor. […] Gait was parkinsonian with typical shuffling, posture was stooped, and postural reflexes diminished. They walked with bilateral alternating dystonia of hands and feet with intermittent toe walking and foot inversion, and was unable to tandem walk.

Structure (SMILES) | Clinical improvement of symptoms
Nc1nc(=O)c2c([nH]1)NCC(CNc1ccc(C(=O)N[C@@H](CCC(=O)O)C(=O)O)cc1)N2C=O (mixture of isomers) [folinic acid] | no improvement
Cc1ncc(CO)c(CO)c1O.Cl [vitamin B6] | no improvement
